{"source": "patent US7250157B2", "about": "“Dermatological compositions and methods” (Applied Genetics Incorporated Dermatics, priority 1996, dated 2007)", "key": {"[1]": {"tested_on": "Cloudman S91 mouse melanoma cell line", "test": "Trypsinization detachment time of S91 cells", "assay_type": "cell-based", "description": "Following this microscopic examination, cells were detached from dishes by trypsin. The time required for detachment by trypsin was recorded as an additional indicator of the phenotypic effects of test compounds. For each treatment, a subsample of cells was counted to determine the effects of treatment compounds on cellular proliferation. The remainder of cells were used for determination of melanin content. Melanin was extracted from cells by vortexing for 15 min in 1N NaOH. Standards were prepared by dissolving melanin (Sigma) in 1 N NaOH (Eller, et al., 1996). Absorbance of standards and samples was measured at 475 nm. Melanin was expressed as pg melanin/cell."}, "[2]": {"tested_on": "Cloudman S91 mouse melanoma cell line", "test": "Microscopic morphology (differentiation) of S91 cells", "assay_type": "cell-based", "description": "The Cloudman S91 mouse melanoma cell line was obtained from American Type Culture Collection (ATCC). Cells were cultured in Dulbecco's Modified Eagles Medium (DMEM) containing 10% calf serum, 2 mM L-glutamine, 10 U Penicillin/ml and 10 ug Streptomycin/ml according to a previously published protocol (Eller, et al., Proc. Natl. Acad. Sci. 93:1087-92. 1996). For testing propylene glycol and analogues for induction of melanogenesis, S91 cells were plated at 10^5 cells/35 mm dish in 10% calf serum. One day after plating, media was removed and replaced with media containing 2% calf serum and test compounds (Eller, et al., 1996). Cells were cultured for 6 days at 37° C. in 5% CO2 in a humidified incubator. Following this treatment period, cells were examined microscopically and the portion of dedifferentiated and differentiated cells was estimated. Previous studies have shown that dedifferentiated S91 cells have a rounded, spindly appearance while differentiated S91 cells have a flattened, cuboidal, multipolar and dendritic appearance (Orlow, et al., Exp. Cell Res. 191:209-218, 1990)."}, "[3]": {"tested_on": "Cloudman S91 mouse melanoma cell line", "test": "Melanin content of S91 cells after treatment with test compound", "assay_type": "cell-based", "method_in_brief": "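Mouse S91 melanoma cells seeded at 10^5 cells/35 mm dish in 10% calf serum and cultured with test compound 6 days at 37 °C, 5% CO2. Differentiation scored microscopically, trypsin detachment time recorded, cells counted; melanin measured by absorbance at 475 nm and expressed as pg melanin/cell.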"}, "[4]": {"tested_on": "nitric oxide in cell-free media from S91 cells", "test": "Nitric oxide in cell-free media from S91 cells (Greiss reagent)", "assay_type": "cell-based, mouse", "conditions": "4 days", "description": "In a related experiment, nitric oxide was measured in cell-free media from S91 cells following treatment with a range of concentrations of 2,3-cis/exo-pinanediol or 5-norbornene-2,2-dimethanol for 4 days. In biological fluids, nitric oxide is converted into nitrite and nitrate with seconds of production. Therefore, nitric oxide is measured by first converting nitrate to nitrite using nitrate reductase, followed by addition of Greiss reagent to detect nitrite as optical density at 550 nm (Moshage, et al., 1995, Clin. Chem. 41:892-896; Schmidt, et al., 1995, Biochemica 2:22)). […] Moreover, the relative melanogenic potency of 2,3-cis/exo-pinanediol and 5-norbornene-2,2-dimethanol shown in FIG. 5 paralleled the relative potency of these compounds with regards to induction of nitric oxide (Table 17). […] It follows that measurement of induction of nitric oxide, cGMP or PKG may provide biochemically relevant screening assays for compounds that may be melanogenic. Thus, the utilization of these assays to screen compounds for melanogenic activity is claimed in the present invention."}, "[5]": {"tested_on": "normal human epidermal melanocytes (NHEM)", "test": "Morphological differentiation of NHEM", "assay_type": "cell-based", "conditions": "5 mM", "description": "Additionally, the length of dendrites was increased approximately 2-3-fold following treatment with 5 mM 5-NBene-2,2-DM, and there was an increase in the number of secretatory vesicles at the termini of dendrites (arrows in FIGS. 3A and 3B). […] Increased secretion of melanosomes resulting from treatment with 5 mM 5-NBene-2,2-DM was reflected in increased extracellular particulate tyrosinase activity (Example 7, Table 11)."}}, "data": [{"compound": "CC(O)CO", "note": "(centres unmarked) [1,2-propanediol, 1,2-Propanediol (Propylene Glycol)]", "values": [{"measurement": "Trypsinization Detachment Time", "setting": "[1]; 50 mM", "value": 3, "unit": "min"}, {"measurement": "Trypsinization Detachment Time", "setting": "[1]; 150 mM", "value": 6, "unit": "min"}, {"measurement": "Trypsinization Detachment Time", "setting": "[1]; 1% (136 mM)", "value": "≦6 min"}, {"measurement": "Trypsinization Detachment Time", "setting": "[1]; 2% (272 mM)", "value": "≦9 min"}, {"measurement": "Trypsinization Detachment Time", "setting": "[1]; 3% (408 mM)", "value": "≦12 min"}, {"measurement": "Trypsinization Detachment Time", "setting": "[1]; 4% (544 mM)", "value": "≦15 min"}, {"measurement": "Trypsinization Detachment Time", "setting": "[1]; 5% (680 mM)", "value": "≦15 min"}, {"measurement": "Morphology Flattened Cuboidal", "setting": "[2]; 50 mM", "value": 25, "unit": "%"}, {"measurement": "Morphology Rounded Spindly", "setting": "[2]; 50 mM", "value": 75, "unit": "%"}, {"measurement": "Morphology Flattened Cuboidal", "setting": "[2]; 150 mM", "value": 50, "unit": "%"}, {"measurement": "Morphology Rounded Spindly", "setting": "[2]; 150 mM", "value": 50, "unit": "%"}, {"measurement": "Morphology Flattened Cuboidal", "setting": "[2]; 1% (136 mM)", "value": 10, "unit": "%"}, {"measurement": "Morphology Rounded Spindly", "setting": "[2]; 1% (136 mM)", "value": 90, "unit": "%"}, {"measurement": "Morphology Flattened Cuboidal", "setting": "[2]; 2% (272 mM)", "value": 30, "unit": "%"}, {"measurement": "Morphology Rounded Spindly", "setting": "[2]; 2% (272 mM)", "value": 70, "unit": "%"}, {"measurement": "Morphology Flattened Cuboidal", "setting": "[2]; 3% (408 mM)", "value": 60, "unit": "%"}, {"measurement": "Morphology Rounded Spindly", "setting": "[2]; 3% (408 mM)", "value": 40, "unit": "%"}, {"measurement": "Morphology Flattened Cuboidal", "setting": "[2]; 4% (544 mM)", "value": 85, "unit": "%"}, {"measurement": "Morphology Rounded Spindly", "setting": "[2]; 4% (544 mM)", "value": 15, "unit": "%"}, {"measurement": "Morphology Flattened Cuboidal", "setting": "[2]; 5% (680 mM)", "value": 100, "unit": "%"}, {"measurement": "Concentration Required for ≧2-fold Melanin Induction in S91 Cells", "setting": "[3]", "value": 150, "unit": "mM"}, {"measurement": "pg Melanin/Cell", "setting": "[3]; 50 mM", "value": 15.6, "unit": "pg Melanin/Cell"}, {"measurement": "ug Melanin", "setting": "[3]; 50 mM", "value": 1.31, "unit": "µg"}, {"measurement": "pg Melanin/Cell", "setting": "[3]; 150 mM", "value": 24.0, "unit": "pg Melanin/Cell"}, {"measurement": "ug Melanin", "setting": "[3]; 150 mM", "value": 1.73, "unit": "µg"}, {"measurement": "pg Melanin/Cell", "setting": "[3]; 1% (136 mM), 6 days", "value": 9.4, "unit": "pg Melanin/Cell"}, {"measurement": "ug Melanin", "setting": "[3]; 1% (136 mM), 6 days", "value": 4.88, "unit": "µg"}, {"measurement": "pg Melanin/Cell", "setting": "[3]; 2% (272 mM), 6 days", "value": 12.5, "unit": "pg Melanin/Cell"}, {"measurement": "ug Melanin", "setting": "[3]; 2% (272 mM), 6 days", "value": 6.24, "unit": "µg"}, {"measurement": "pg Melanin/Cell", "setting": "[3]; 3% (408 mM), 6 days", "value": 20.2, "unit": "pg Melanin/Cell"}, {"measurement": "ug Melanin", "setting": "[3]; 3% (408 mM), 6 days", "value": 4.03, "unit": "µg"}, {"measurement": "pg Melanin/Cell", "setting": "[3]; 4% (544 mM), 6 days", "value": 40.1, "unit": "pg Melanin/Cell"}, {"measurement": "ug Melanin", "setting": "[3]; 4% (544 mM), 6 days", "value": 4.01, "unit": "µg"}, {"measurement": "pg Melanin/Cell", "setting": "[3]; 5% (680 mM), 6 days", "value": 28.9, "unit": "pg Melanin/Cell"}, {"measurement": "ug Melanin", "setting": "[3]; 5% (680 mM), 6 days", "value": 2.31, "unit": "µg"}]}, {"compound": "OCC1(CO)CC2C=CC1C2", "note": "(centres unmarked) [5-NBene-2,2-DM, 5-norbornene-2,2-dimethanol]", "values": [{"measurement": "nmoles NO/10^6 Cells", "setting": "[4]; 1 mM", "value": "11.6 ± 1.1", "unit": "nmoles NO/10^6 Cells"}, {"measurement": "uM NO", "setting": "[4]; 1 mM", "value": "4.80 ± 0.32", "unit": "µM"}, {"measurement": "nmoles NO/10^6 Cells", "setting": "[4]; 2.5 mM", "value": "21.4 ± 3.7", "unit": "nmoles NO/10^6 Cells"}, {"measurement": "uM NO", "setting": "[4]; 2.5 mM", "value": "5.46 ± 0.32", "unit": "µM"}, {"measurement": "nmoles NO/10^6 Cells", "setting": "[4]; 5 mM", "value": "72.9 ± 10.5", "unit": "nmoles NO/10^6 Cells"}, {"measurement": "uM NO", "setting": "[4]; 5 mM", "value": "6.36 ± 0.12", "unit": "µM"}, {"measurement": "Concentration Required for ≧2-fold Melanin Induction in S91 Cells", "setting": "[3]", "value": 5, "unit": "mM"}, {"measurement": "increase of length of dendrites of NHEM", "setting": "[5]", "value": "2-3 fold"}, {"measurement": "morphological changes of NHEM (in words)", "setting": "[5]", "value": "conversion of cells from a bipolar phenotype to a multidendritic phenotype"}]}]}
